Measurements taken from patent publication US20260097111A1, “ETHER LIPIDS FOR HYPERACTIVATION OF MAMMALIAN DENDRITIC CELLS” (priority 2022, published 2026).

Experiments:
human moDCs = experiment: Cell viability of human moDCs (CellTiter-Glo); format: cell-based; conditions: human moDCs, R848 + lipid with MCC950; FIG. 3A
Procedure: After an overnight incubation, cells and culture supernatant were used for downstream readouts. One hundred and fifty microliters of cell supernatant were collected. Viability was measured using the CellTiter-Glo assay (Promega) which measures ATP content from cells. Fifty microliters of CellTiter-Glo reagent were added to 50 μL of cells. Luminescence was quantified on a SpectraMax m5e plate reader using an integration time of 500 milliseconds. Viability data were set relative to control conditions where cells were treated with only R848. To measure IL-1β secretion, the human IL-1β Lumit kit (Promega) was used to assay cell culture supernatant. Culture supernatant samples were incubated with enzyme-linked antibodies in a 384-well plate for 1 hour before addition of luminescent substrate. Samples were measured for luminescence with an integration time of 500 milliseconds. IL-1β concentrations of samples was determined by interpolation from a standard curve using 4-parameter logistic regression analysis. Studies were performed on three different human donor samples, and each biological condition was tested in triplicate. Graphed data represent means from each donor.
Measurement of Cytokine Secretion and Cell Viability. After an overnight incubation, cells and culture supernatant were used for downstream readouts. One hundred and fifty microliters of cell culture supernatant were collected. Viability was measured using the CellTiter-Glo assay (Promega) which measures ATP content from cells. Fifty microliters of CellTiter-Glo reagent were added to 50 μL of cells. Luminescence was quantified on a SpectraMax m5e plate reader using an integration time of 500 milliseconds. Viability data were set relative to control conditions where cells were treated with only R848. To measure IL-1β secretion, the human IL-1β Lumit kit (Promega) was used. […] Samples were measured for luminescence with an integration time of 500 milliseconds. IL-1β concentrations of samples was determined by interpolation from a standard curve using 4-parameter logistic regression analysis. […]

human moDC = experiment: IL-1β ELISA, human moDC treated with R848, DGP, MCC950; format: cell-based
Procedure: Monocyte Isolation, Storage, and Differentiation into moDC. Human leukapheresis blood products were freshly obtained from AllCells via same day or overnight shipping at 4° C. Miltenyi StraightFrom Leukopak CD14 MicroBead isolation kits were used according to manufacturer instructions to isolate CD14+ monocytes. Briefly, leukopaks ranging in quantity from 5×10^9 to 1×10^10 total nucleated cells were evenly aliquoted into 50 mL conical tubes. Cells were incubated with CD14 microbeads and then loaded on the MultiMACS using the program “Possel2”. After washing out the negative population, CD14+ cells were eluted from the columns and counted. An aliquot of monocytes was used to stain for purity of cells to ensure that isolated live cells were […] CD11c+CD14+ by flow cytometry. […] Vials were placed in CoolCell freezing containers and placed in a −80° C. freezer and stored no longer than 1 week. Frozen cells were transferred for long-term storage to the vapor phase of a liquid nitrogen freezer until use.
To differentiate monocytes into moDC, vials of cells were taken out of the liquid nitrogen freezer and quickly thawed in a 37° C. water bath. Cells were diluted ten-fold in warmed R10++ media containing 50 units/mL benzonase. R10++ media was composed of RPMI 1640 media containing 10% fetal bovine serum, 50 units/mL penicillin, […] streptomycin, 2 mM L-glutamine, 1 mM sodium pyruvate, […] beta-mercaptoethanol, 10 mM HEPES, and 1% Gibco MEM non-essential amino acids. After gentle mixing by inversion of tubes, cells were incubated at 37° C. for 10 min. Cells were pelleted at 400×g for 5 min and supernatant was aspirated. Cells were resuspended in R10++ media and counted on the MoxiGo by diluting an aliquot in PBS containing a final concentration of 2.5 μg/mL propidium iodide. Cells were plated in T75 culture flasks at 3-6×10^7 cells per flask in a total of 20 mL R10++ media containing a final concentration of 50 ng/mL GM-CSF and 25 ng/mL IL-4. Three days after the start of culture, an additional 10 mL R10++ containing 50 ng/mL GM-CSF and 25 ng/mL IL-4 was added to each flask.
Six days after start of differentiation. R10++ media containing cells were placed into 50 mL conical tubes. Flasks were washed with an additional 10 mL PBS and also collected. […] Cells were resuspended in R10++ media and counted on the MoxiGo by diluting an aliquot in PBS containing a final concentration of 2.5 μg/mL propidium iodide. Cells were then adjusted to 1×10^6 cells/mL in R10++ media.
moDC Treatment. Human moDC were plated at 1×10^5 cells/well in 96-well flat-bottom tissue culture plates in R10++ media by adding 100 μL of cells per well. To each well, a 25 μL solution of R10++ containing 400 ng/mL GM-CSF and 200 ng/mL IL-4 was added.
Lyophilized R848 stocks were prepared as described above and frozen at −80° C. An aliquot of frozen R848 was thawed and further diluted to 11.4 μM in R10++ (4 μg/mL R848). Cell culture conditions receiving R848 treatment had 50 μL added to wells. For wells not receiving R848, 50 μL R10++ was added to wells. Lyophilized MCC950 was prepared as described above and stored at −20° C. MCC950 was further diluted to 40 uM in a prepared R10++ solution containing 11.4 μM R848. Cells receiving R848 and MCC950 treatment had 50 μL added to wells. Final concentrations of R848 and MCC950 in a total 200 μL volume were respectively 2.85 μM and 10 μM.
A4.44% solution of KP407 dissolved in sterile, distilled water was prepared at a temperature of 4° C. […]

Row | Compound | cell viability (human moDCs) | concentration of DGP sufficient in combination with R848 to significantly increase IL-1β secretion (human moDC; donor HD94) [µM] | concentration of DGP sufficient in combination with R848 to significantly increase IL-1β secretion (human moDC; donor HD95) [µM] | concentration of DGP sufficient in combination with R848 to significantly increase IL-1β secretion (human moDC; donors HD93 and HD96) | IL-1β (human moDC; without addition of R848, DGP 0-82.5 μM, overnight, FIG. 21)
1 | CC(C)(O)c1coc(S(=O)(=O)NC(=O)Nc2c3c(cc4c2CCC4)CCC3)c1 [MCC950, reference compound] | did not affect cell viability |  |  |  | 
2 | CCCCCCCCCCCCCCCCCCCCCCOC[C@@H](O)COP(=O)(O)O [Compound 2, 1-docosyl-sn-glycerol-3-phosphate] |  | 20.6 | 82.5 | at least 41.3 uM | less than 100 μg/mL
